In this assay the target is T1, TRAP1 enzyme (Homo sapiens, UniProt Q12931).
T1 construct: 150 nM Trap1 enzyme was incubated with various concentrations of the test compound
T1 sequence (Q12931 60-704): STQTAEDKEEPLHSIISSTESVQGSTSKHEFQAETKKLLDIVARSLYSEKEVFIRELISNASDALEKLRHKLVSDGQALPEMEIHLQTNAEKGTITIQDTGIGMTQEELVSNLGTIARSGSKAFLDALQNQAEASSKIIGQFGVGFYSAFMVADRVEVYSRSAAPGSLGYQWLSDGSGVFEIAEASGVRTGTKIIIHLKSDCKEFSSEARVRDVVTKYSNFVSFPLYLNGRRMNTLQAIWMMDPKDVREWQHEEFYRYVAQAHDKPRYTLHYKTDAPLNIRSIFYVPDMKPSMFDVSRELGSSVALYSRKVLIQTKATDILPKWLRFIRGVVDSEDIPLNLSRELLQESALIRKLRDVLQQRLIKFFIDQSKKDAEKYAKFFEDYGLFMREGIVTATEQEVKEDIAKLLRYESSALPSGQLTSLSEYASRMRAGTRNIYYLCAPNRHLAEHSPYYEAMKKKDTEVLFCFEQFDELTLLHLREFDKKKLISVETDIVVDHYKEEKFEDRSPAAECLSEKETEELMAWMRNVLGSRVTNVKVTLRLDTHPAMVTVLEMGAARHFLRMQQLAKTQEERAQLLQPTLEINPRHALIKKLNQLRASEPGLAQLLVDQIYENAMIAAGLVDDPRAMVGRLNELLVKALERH
Put plainly: ADP Glo assay of TRAP1 ATPase activity. The format is biochemical. Particulars: for EC50: concentration for half maximal activation, read-out: ADP GLO DRC: GeoMean EC50; for Emax: maximal percent activation, read-out: ADP GLO DRC: Mean Emax; for activation at 50 µM: 1 h, compound concentration 50 μM, read-out: ADP-Glo Percent Activation at 50 μM. A digest of the protocol:
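ADP-Glo luminescence quantifying ADP from 150 nM TRAP1 preincubated 30 min at 37° C with compound (0.79–100 μM), then 20 μM ATP for 60 min at 37° C. Buffer: 25 mM Pipes pH 7.5, 40 mM KCl, 0.05 mM MgCl2, EGTA, BSA, detergents. ADP from ATP/ADP standard curve; Emax and EC50 from sigmoidal fit.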
(In general: ADP-Glo turns the ADP formed in a reaction into a luminescent signal.)

Some results are limits rather than exact numbers.

`COc1ncc(NC(=O)c2csc(-c3ccccc3)n2)cc1S(=O)(=O)Nc1cccc(C#N)n1` [compound 2142]: the EC50 (usually the midpoint of the concentration-response curve) fell in the range of 20 to 100 µM and the Emax (as a rule, the greatest response seen or fitted, relative to the assay's reference) was 200 to 300%.
For `COc1ncc(NC(=O)c2csc3c2CNCC3)cc1S(=O)(=O)Nc1c(C)cccc1C` [compound 1972, N-(5-(N-(2,6-dimethylphenyl)sulfamoyl)-6-methoxypyridin-3-yl)-4,5,6,7-tetrahydrothieno[3,2-c]pyridine-3-carboxamide], in that order: 20 to 100 µM and 160 to 199%.
For `COc1ncc(NC(=O)c2coc(-c3ccccc3)n2)cc1S(=O)(=O)Nc1nc(C(C)(C)C)ns1` [compound 2403], the EC50 was 20 to 100 µM and the Emax was 200 to 300%.
`COc1ncc(NC(=O)c2ccn[nH]2)cc1S(=O)(=O)Nc1c(C)cccc1C` [compound 2709]: the activation at 50 µM is 120 to 150%.
Turning to `COc1ncc(NC(=O)c2csc(-c3cccnc3)n2)cc1S(=O)(=O)Nc1ccc(F)c(F)c1C` [compound 2390], the EC50 is 10 to 20 µM and the Emax fell in the range of 200 to 300%.
As to `COc1ncc(NC(=O)c2n[nH]cc2C)cc1S(=O)(=O)Nc1c(C)cccc1C` [compound 2756], the activation at 50 µM fell in the range of 151 to 180%.
Still for that read-out and setting: next, `CCc1noc(C)c1C(=O)Nc1cnc(OC)c(S(=O)(=O)Nc2c(C)cccc2C)c1` [compound 2752]: 120 to 150%.
On the same count and under the same terms, next, `CCn1nc(C)cc1C(=O)Nc1cnc(OC)c(S(=O)(=O)Nc2c(C)cccc2C)c1` [compound 2609]: 181 to 352%.
Take `COc1ncc(NC(=O)c2ncc(-c3ccccc3)o2)cc1S(=O)(=O)Nc1cc(F)c(F)cc1F` [compound 1503]: the EC50 was in the range of 20 to 100 µM and the Emax was in the range of 160 to 199%.
As for `COc1ncc(NC(=O)c2csc(-c3ccccc3)n2)cc1S(=O)(=O)Nc1c(C#N)cccc1C(F)(F)F` [compound 2068], the concentration for a half-maximal effect (EC50) was in the range of 20 to 100 µM and the Emax lay within 200 to 300%.
With `COc1ncc(NC(=O)c2cccc3ocnc23)cc1S(=O)(=O)Nc1c(C)cccc1C` [compound 1366, N-(5-(N-(2,6-dimethylphenyl)sulfamoyl)-6-methoxypyridin-3-yl)benzo[d]oxazole-4-carboxamide], the EC50 was < 10 µM and the Emax lay within 200 to 300%.
On to `COc1ncc(NC(=O)c2cn3c(n2)CCCC3)cc1S(=O)(=O)Nc1c(C)cccc1C` [compound 2771], for which the activation at 50 µM is 151 to 180%.
Turning to `COc1ncc(NC(=O)c2csc(C)n2)cc1S(=O)(=O)Nc1c(C)cccc1C` [compound 2501], the EC50 is 20 to 100 µM and the Emax fell in the range of 160 to 199%.
As to `COc1ncc(NC(=O)c2ccno2)cc1S(=O)(=O)Nc1c(C)cccc1C` [compound 2781], the activation at 50 µM lay in the range of 120 to 150%.
On to `COc1ncc(NC(=O)c2csc(-c3ccccc3)n2)cc1S(=O)(=O)Nc1c(C)cc(Cl)cc1C` [compound 1388, N-(5-(N-(4-chloro-2,6-dimethylphenyl)sulfamoyl)-6-methoxypyridin-3-yl)-2-phenylthiazole-4-carboxamide], for which the EC50 lay in the range of 10 to 20 µM and the Emax was in the range of 119 to 159%.
For `COc1ncc(NC(=O)c2coc(-c3ccccc3)n2)cc1S(=O)(=O)Nc1c(C)ccc(C#N)c1C` [compound 2072], the EC50 is < 10 µM and the Emax fell in the range of 160 to 199%.
For `COc1ncc(NC(=O)c2coc(-c3ccccc3)n2)cc1S(=O)(=O)Nc1cccc2cnc(C)cc12` [compound 2447], in that order: 10 to 20 µM and 160 to 199%.
Taken in the same sequence, the figures for `COc1ncc(NC(=O)c2cccc(-c3noc(C)n3)c2)cc1S(=O)(=O)Nc1c(C)cccc1C` [compound 1401, N-(5-(N-(2,6-dimethylphenyl)sulfamoyl)-6-methoxypyridin-3-yl)-3-(5-methyl-1,2,4-oxadiazol-3-yl)benzamide] were 10 to 20 µM and 160 to 199%.
For the compound `COc1ncc(NC(=O)c2ccc(NC(C)=O)cc2)cc1S(=O)(=O)Nc1c(C)cccc1C` [compound 2746], the activation at 50 µM was in the range of 181 to 352%.
Consider `COc1ncc(NC(=O)c2csc(C(C)C)n2)cc1S(=O)(=O)Nc1c(C)cccc1C` [compound 2496], for which the EC50 was in the range of 10 to 20 µM and the Emax lay in the range of 160 to 199%.
For `COc1ncc(NC(=O)c2csc3c2C2CCN3CC2)cc1S(=O)(=O)Nc1ccc(Cl)cc1` [compound 1944, N-(5-(N-(4-chlorophenyl)sulfamoyl)-6-methoxypyridin-3-yl)-5,6-dihydro-4H-4,7-ethanothieno[2,3-b]pyridine-3-carboxamide], in that order: 10 to 20 µM and 200 to 300%.
Taken in the same sequence, the figures for `COc1ncc(NC(=O)c2csc3c2C2CCN3CC2)cc1S(=O)(=O)Nc1c(C)cccc1C` [compound 1946, N-(5-(N-(2,6-dimethylphenyl)sulfamoyl)-6-methoxypyridin-3-yl)-5,6-dihydro-4H-4,7-ethanothieno[2,3-b]pyridine-3-carboxamide] were < 10 µM and 160 to 199%.
Regarding `COc1ncc(NC(=O)c2ccc(NS(C)(=O)=O)cc2)cc1S(=O)(=O)Nc1c(C)cccc1C` [compound 2761], the activation at 50 µM is 181 to 352%.
On the same count and under the same terms, for `COc1ncc(NC(=O)c2cnc(C)s2)cc1S(=O)(=O)Nc1c(C)cccc1C` [compound 2661] the value was 151 to 180%.
Consider `COc1ncc(NC(=O)c2coc(C3CCCCC3)n2)cc1S(=O)(=O)Nc1c(C)cccc1C` [compound 2743], for which the activation at 50 µM was 151 to 180%.
As to `COc1ncc(NC(=O)c2cccc(CN3CCN(C)CC3)c2)cc1S(=O)(=O)Nc1c(C)cccc1C` [compound 2715], the activation at 50 µM was 120 to 150%.
In the case of `COc1ncc(NC(=O)c2csc(-c3ccccc3)n2)cc1S(=O)(=O)Nc1sc2c(c1C#N)CCCC2` [compound 2088], the EC50 was in the range of 20 to 100 µM and the Emax is 200 to 300%.
For `COc1ncc(NC(=O)c2csc(-c3ccccc3)n2)cc1S(=O)(=O)Nc1cc(C)no1` [compound 1784], in that order: 20 to 100 µM and 119 to 159%.
`COc1ncc(NC(=O)c2cn(C)c3ncccc23)cc1S(=O)(=O)Nc1c(C)cccc1C` [compound 1395, N-(5-(N-(2,6-dimethylphenyl)sulfamoyl)-6-methoxypyridin-3-yl)-1-methyl-1H-pyrrolo[2,3-b]pyridine-3-carboxamide]: the EC50 is 20 to 100 µM and the Emax is 200 to 300%.
For the compound `COc1ncc(NC(=O)c2cnccc2N(C)C)cc1S(=O)(=O)Nc1c(C)cccc1C` [compound 2789], the activation at 50 µM fell in the range of 120 to 150%.
As to `COc1ncc(NC(=O)c2coc(-c3ccccc3)n2)cc1S(=O)(=O)Nc1ncc(Cl)cc1F` [compound 1977, N-(5-(N-(5-chloro-3-fluoropyridin-2-yl)sulfamoyl)-6-methoxypyridin-3-yl)-2-phenyloxazole-4-carboxamide], the EC50 was 20 to 100 µM and the maximal response (Emax) was 200 to 300%.
As for `CCN1CCN(c2ccc(C(=O)Nc3cnc(OC)c(S(=O)(=O)Nc4c(C)cccc4C)c3)cc2)CC1` [compound 2791], the activation at 50 µM was 181 to 352%.
Consider `COc1ncc(NC(=O)c2cnc(-c3ccccc3)o2)cc1S(=O)(=O)Nc1cccc(C(F)(F)F)n1` [compound 2397], for which the EC50 lay within 20 to 100 µM and the Emax was in the range of 119 to 159%.
For `COc1ncc(NC(=O)c2ncc(-c3ccccc3)o2)cc1S(=O)(=O)Nc1sc2c(c1C#N)CCCC2` [compound 1519], in that order: 10 to 20 µM and 160 to 199%.
With `COc1ncc(NC(=O)c2ncc(-c3ccccc3)o2)cc1S(=O)(=O)Nc1c(Cl)cccc1C(F)(F)F` [compound 1303, N-(5-(N-(2-chloro-6-(trifluoromethyl)phenyl)sulfamoyl)-6-methoxypyridin-3-yl)-5-phenyloxazole-2-carboxamide], the EC50 was in the range of 10 to 20 µM and the Emax lay in the range of 160 to 199%.
Turning to `COCCn1ccc(C(=O)Nc2cnc(OC)c(S(=O)(=O)Nc3c(C)cccc3C)c2)n1` [compound 2665], the activation at 50 µM is 120 to 150%.
Take `COc1ncc(NC(=O)c2noc3c2CCCC3)cc1S(=O)(=O)Nc1ccc(Cl)cc1` [compound 1194, N-(5-(N-(4-chlorophenyl)sulfamoyl)-6-methoxypyridin-3-yl)-4,5,6,7-tetrahydrobenzo[d]isoxazole-3-carboxamide]: the EC50 fell in the range of 20 to 100 µM and the Emax lay within 119 to 159%.
As for `COc1ncc(NC(=O)c2ncc[nH]2)cc1S(=O)(=O)Nc1c(C)cccc1C` [compound 2753], the activation at 50 µM was 120 to 150%.
In the case of `COc1ncc(NC(=O)c2ccc3c(c2)OCCN3C)cc1S(=O)(=O)Nc1c(C)cccc1C` [compound 2576], the activation at 50 µM was in the range of 181 to 352%.
On to `COc1ncc(NC(=O)c2ccccc2C)cc1S(=O)(=O)Nc1c(C)cccc1C` [compound 2548], for which the activation at 50 µM lay in the range of 181 to 352%.
The same measure, in the same setting: for `COc1ncc(NC(=O)c2cnn(CC(F)(F)F)c2)cc1S(=O)(=O)Nc1c(C)cccc1C` [compound 2684] the value was 120 to 150%; for `COc1ncc(NC(=O)c2conc2C)cc1S(=O)(=O)Nc1c(C)cccc1C` [compound 2706], 120 to 150%.

Values taken from patent US20230159509A1 (Amathus Therapeutics, Inc., priority 2020, published 2023).
